Laboratory results reported in PubChem BioAssay (NCI).
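Growth conditions: 96-well plates. Treatment: test compound, 48 hours, 5 concentrations. Analysis: linear interpolation between bracketing concentrations; unreached endpoints set to highest concentration. TGI: concentration producing complete growth inhibition.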

Columns and labels:
Experiment in all cases: growth of human tumour cells (NCI), 48 h
MALME-3M melanoma = test system: MALME-3M melanoma
UO-31 renal = test system: UO-31 renal
NCI/ADR-RES ovarian = test system: NCI/ADR-RES ovarian
SK-MEL-28 melanoma = test system: SK-MEL-28 melanoma
SNB-19 CNS = test system: SNB-19 CNS
CAKI-1 renal = test system: CAKI-1 renal
MDA-MB-231 breast = test system: MDA-MB-231 breast
NCI-H522 lung = test system: NCI-H522 lung
SW-620 colon = test system: SW-620 colon
MOLT-4 leukemia = test system: MOLT-4 leukemia

SMILES: CCOC(=O)Cc1cc(=O)[nH]c(-n2[nH]c(C)c(CCO)c2=O)n1
- TGI (MALME-3M melanoma): > 100 µM
- TGI (UO-31 renal): > 100 µM
- TGI (NCI/ADR-RES ovarian): > 100 µM
- TGI (SK-MEL-28 melanoma): > 100 µM
- TGI (SNB-19 CNS): > 100 µM
- TGI (CAKI-1 renal): > 100 µM
- TGI (MDA-MB-231 breast): > 100 µM
- TGI (NCI-H522 lung): > 100 µM
- TGI (SW-620 colon): > 100 µM

SMILES: O=C(NNc1nc(-c2ccccc2)cs1)Nc1ccccc1
- TGI (MALME-3M melanoma): > 100 µM
- TGI (UO-31 renal): 75.2 µM
- TGI (NCI/ADR-RES ovarian): 45.8 µM
- TGI (SK-MEL-28 melanoma): 85.6 µM
- TGI (MOLT-4 leukemia): > 100 µM
- TGI (SNB-19 CNS): > 100 µM
- TGI (CAKI-1 renal): > 100 µM
- TGI (MDA-MB-231 breast): 54.4 µM
- TGI (SW-620 colon): > 100 µM

SMILES: Cc1cc(OCC(O)CO)ccc1Cl (centres undefined)
- TGI (MALME-3M melanoma): > 100 µM
- TGI (UO-31 renal): > 100 µM
- TGI (SK-MEL-28 melanoma): > 100 µM
- TGI (MOLT-4 leukemia): > 100 µM
- TGI (SNB-19 CNS): > 100 µM
- TGI (CAKI-1 renal): > 100 µM
- TGI (NCI-H522 lung): > 100 µM
- TGI (SW-620 colon): > 100 µM

SMILES: Cc1ccc(S(=O)(=O)NC(=O)NC(CC(=O)O)C(=O)O)cc1 (centres undefined)
- TGI (MALME-3M melanoma): > 100 µM
- TGI (UO-31 renal): > 100 µM
- TGI (NCI/ADR-RES ovarian): > 100 µM
- TGI (SK-MEL-28 melanoma): > 100 µM
- TGI (MOLT-4 leukemia): > 100 µM
- TGI (SNB-19 CNS): > 100 µM
- TGI (MDA-MB-231 breast): > 100 µM
- TGI (NCI-H522 lung): > 100 µM
- TGI (SW-620 colon): > 100 µM

SMILES: NC(=S)NS(=O)(=O)c1ccc(Cl)cc1
- TGI (MALME-3M melanoma): > 100 µM
- TGI (NCI/ADR-RES ovarian): > 100 µM
- TGI (SK-MEL-28 melanoma): > 100 µM
- TGI (MOLT-4 leukemia): > 100 µM
- TGI (SNB-19 CNS): > 100 µM
- TGI (CAKI-1 renal): > 100 µM
- TGI (MDA-MB-231 breast): > 100 µM
- TGI (NCI-H522 lung): > 100 µM
- TGI (SW-620 colon): > 100 µM

SMILES: CC(=O)c1c(O)cc(O)c(-c2c(C)cc(O)c3c2C(=O)c2cccc(O)c2C3=O)c1O
- TGI (MALME-3M melanoma): 30.6 µM
- TGI (UO-31 renal): 27.9 µM
- TGI (NCI/ADR-RES ovarian): 42.2 µM
- TGI (SK-MEL-28 melanoma): 73.5 µM
- TGI (MOLT-4 leukemia): 38.5 µM
- TGI (SNB-19 CNS): 39.1 µM
- TGI (MDA-MB-231 breast): 41.1 µM
- TGI (NCI-H522 lung): 24.7 µM
- TGI (SW-620 colon): 36.8 µM

SMILES: CCOP(=O)(Cc1nc(C#N)c(N)o1)OCC
- TGI (MALME-3M melanoma): > 100 µM
- TGI (SK-MEL-28 melanoma): > 100 µM
- TGI (MOLT-4 leukemia): > 100 µM
- TGI (SNB-19 CNS): > 100 µM
- TGI (CAKI-1 renal): > 100 µM
- TGI (MDA-MB-231 breast): > 100 µM
- TGI (NCI-H522 lung): > 100 µM
- TGI (SW-620 colon): > 100 µM

SMILES: COc1cccc(N(CN2C(=O)CCC2OC)C(C)=O)c1 (centres undefined)
- TGI (UO-31 renal): > 100 µM
- TGI (NCI/ADR-RES ovarian): > 100 µM
- TGI (SK-MEL-28 melanoma): > 100 µM
- TGI (MOLT-4 leukemia): > 100 µM
- TGI (SNB-19 CNS): > 100 µM
- TGI (CAKI-1 renal): > 100 µM
- TGI (MDA-MB-231 breast): > 100 µM
- TGI (SW-620 colon): > 100 µM

SMILES: CC(C)=C=CP(=O)(O)c1ccccc1
- TGI (MALME-3M melanoma): > 100 µM
- TGI (NCI/ADR-RES ovarian): > 100 µM
- TGI (SK-MEL-28 melanoma): > 100 µM
- TGI (SNB-19 CNS): > 100 µM
- TGI (CAKI-1 renal): > 100 µM
- TGI (NCI-H522 lung): > 100 µM
- TGI (SW-620 colon): > 100 µM

SMILES: O=C(Cn1c(=O)oc2ccc(C(=O)c3cccc(Cl)c3)cc21)c1ccccc1
- TGI (MALME-3M melanoma): > 100 µM
- TGI (UO-31 renal): > 100 µM
- TGI (NCI/ADR-RES ovarian): > 100 µM
- TGI (SK-MEL-28 melanoma): > 100 µM
- TGI (MOLT-4 leukemia): > 100 µM
- TGI (CAKI-1 renal): > 100 µM
- TGI (MDA-MB-231 breast): > 100 µM
- TGI (NCI-H522 lung): > 100 µM
- TGI (SW-620 colon): > 100 µM

SMILES: Cc1cc(S(=O)(=O)Nc2n[nH]c(Nc3ccccc3)n2)c(SSc2cc(Cl)c(C)cc2S(=O)(=O)Nc2n[nH]c(Nc3ccccc3)n2)cc1Cl
- TGI (MALME-3M melanoma): > 100 µM
- TGI (UO-31 renal): > 100 µM
- TGI (NCI/ADR-RES ovarian): > 100 µM
- TGI (SK-MEL-28 melanoma): > 100 µM
- TGI (MOLT-4 leukemia): > 100 µM
- TGI (SNB-19 CNS): > 100 µM
- TGI (CAKI-1 renal): > 100 µM
- TGI (MDA-MB-231 breast): > 100 µM
- TGI (SW-620 colon): > 100 µM
